Measurements: ChEMBL document CHEMBL1201862, “PubChem BioAssay data set” (2004)
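Dose response: 5 concentrations. Exposure: 48 h. Format: 96-well plates. Endpoint: linear interpolation; highest concentration if not reached. GI50 is the concentration that inhibits growth by half.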 Activity calls are given as the source filed them. Cut-off read from the data, not from the text of the source: active = GI50 up to about 1.1 µM and inactive = higher.

Tests used:
Assay in all cases: NCI tumour cell line growth inhibition, 48 h
T47D = test system: T47D
Malme-3M = test system: Malme-3M
NCI-H226 = test system: NCI-H226
OVCAR-4 = test system: OVCAR-4
CAKI-1 = test system: CAKI-1
NCI-H522 = test system: NCI-H522
A498 = test system: A498
RXF 393 = test system: RXF 393
NCI-H460 = test system: NCI-H460
EKVX = test system: EKVX
HCT-15 = test system: HCT-15
A549 = test system: A549
HL-60 = test system: HL-60
OVCAR-3 = test system: OVCAR-3
UACC-257 = test system: UACC-257
OVCAR-8 = test system: OVCAR-8
MDA-MB-231 = test system: MDA-MB-231
UACC-62 = test system: UACC-62
NCI-H23 = test system: NCI-H23
K562 = test system: K562
PC-3 = test system: PC-3
SF-295 = test system: SF-295
SNB-75 = test system: SNB-75
HOP-62 = test system: HOP-62
SR = test system: SR
RPMI-8226 = test system: RPMI-8226
786-0 = test system: 786-0
COLO 205 = test system: COLO 205
Hs-578T = test system: Hs-578T
MCF7 = test system: MCF7
DU-145 = test system: DU-145
HOP-92 = test system: HOP-92
SK-MEL-5 = test system: SK-MEL-5
OVCAR-5 = test system: OVCAR-5
ACHN = test system: ACHN
SN12C = test system: SN12C
SF-268 = test system: SF-268
MOLT-4 = test system: MOLT-4
SK-MEL-28 = test system: SK-MEL-28
UO-31 = test system: UO-31
IGROV-1 = test system: IGROV-1
HCT-116 = test system: HCT-116
HCC 2998 = test system: HCC 2998
SNB-19 = test system: SNB-19
TK-10 = test system: TK-10
KM12 = test system: KM12
SF-539 = test system: SF-539
M14 = test system: M14
SW-620 = test system: SW-620
LOX IMVI = test system: LOX IMVI
MDA-N = test system: MDA-N
CCRF-CEM = test system: CCRF-CEM
MDA-MB-435 = test system: MDA-MB-435
NCI/ADR-RES = test system: NCI/ADR-RES
SK-MEL-2 = test system: SK-MEL-2
HT-29 = test system: HT-29
U-251 = test system: U-251
BT-549 = test system: BT-549

Measured: GI50

S=C(NCc1ccccn1)N/N=C/c1ccccn1
inactive: SNB-75 3.05 µM | Hs-578T 1.14 µM
< 0.01 µM: HCT-15
active: T47D < 0.01 µM | Malme-3M 0.614 µM | NCI-H226 < 0.0168 µM | OVCAR-4 < 0.0371 µM | CAKI-1 < 0.01 µM | NCI-H522 < 0.01 µM | A498 < 0.0113 µM | RXF 393 < 0.0378 µM | NCI-H460 0.0556 µM | EKVX < 0.0194 µM | A549 < 0.0188 µM | HL-60 < 0.01 µM | OVCAR-3 < 0.01 µM | UACC-257 < 0.01 µM | OVCAR-8 < 0.032 µM | MDA-MB-231 < 0.01 µM | UACC-62 < 0.0181 µM | NCI-H23 < 0.01 µM | K562 < 0.01 µM | PC-3 < 0.01 µM | SF-295 0.0482 µM | HOP-62 < 0.01 µM | SR < 0.01 µM | RPMI-8226 < 0.01 µM | 786-0 < 0.01 µM | COLO 205 < 0.01 µM | MCF7 < 0.01 µM | DU-145 0.268 µM | HOP-92 < 0.0206 µM | SK-MEL-5 0.0184 µM | OVCAR-5 < 0.01 µM | ACHN < 0.01 µM | SN12C 0.0724 µM | SF-268 0.0214 µM | MOLT-4 < 0.01 µM | SK-MEL-28 0.518 µM | UO-31 < 0.0331 µM | IGROV-1 < 0.01 µM | HCT-116 < 0.01 µM | HCC 2998 0.229 µM | SNB-19 0.726 µM | TK-10 0.0195 µM | KM12 < 0.01 µM | SF-539 < 0.0159 µM | M14 < 0.01 µM | SW-620 < 0.01 µM | LOX IMVI < 0.0167 µM | MDA-N 0.454 µM | CCRF-CEM < 0.01 µM | MDA-MB-435 0.207 µM | NCI/ADR-RES < 0.01 µM | SK-MEL-2 0.0234 µM

O=C(CCCN1CCC2(CC1)/C(=N/C1CCCCC1)NC(=O)N2c1ccccc1)c1ccc(F)cc1
28.3 µM: HCT-15
inactive: T47D 29.9 µM | Malme-3M 12.7 µM | NCI-H226 14.9 µM | OVCAR-4 31.7 µM | CAKI-1 > 100 µM | NCI-H522 24.7 µM | A498 15.2 µM | RXF 393 39.5 µM | NCI-H460 22.7 µM | EKVX 29.8 µM | A549 44.4 µM | HL-60 23.1 µM | OVCAR-3 11.6 µM | UACC-257 21.5 µM | OVCAR-8 28.4 µM | MDA-MB-231 12.4 µM | UACC-62 22.3 µM | NCI-H23 21.3 µM | K562 29.8 µM | PC-3 21.6 µM | SF-295 19.5 µM | SNB-75 17.2 µM | HOP-62 20.9 µM | SR 16.7 µM | RPMI-8226 20.9 µM | 786-0 20.8 µM | COLO 205 16.1 µM | Hs-578T 33.4 µM | MCF7 14.1 µM | DU-145 41.2 µM | HOP-92 17.1 µM | SK-MEL-5 23.1 µM | OVCAR-5 20.9 µM | ACHN 31.7 µM | SN12C 18.4 µM | SF-268 19 µM | MOLT-4 21.9 µM | SK-MEL-28 18.6 µM | IGROV-1 26.7 µM | HT-29 17.9 µM | HCT-116 21.3 µM | HCC 2998 20.6 µM | SNB-19 > 100 µM | TK-10 22.5 µM | KM12 19.8 µM | SF-539 18.8 µM | M14 17.6 µM | SW-620 > 100 µM | LOX IMVI 14.2 µM | MDA-N 18.2 µM | CCRF-CEM 23.4 µM | MDA-MB-435 20.1 µM | NCI/ADR-RES 19.2 µM | U-251 33.1 µM | SK-MEL-2 17.7 µM

CCCCCCCCCCCCC/C=C/[C@H]1[C@@H](C(=O)OC)N1[S+]([O-])c1ccc(C)cc1 (stereo not given in full)
inactive: T47D 22.9 µM | Malme-3M > 100 µM | NCI-H522 71.4 µM | A498 > 100 µM | EKVX 88.3 µM | HL-60 21.2 µM | OVCAR-3 > 100 µM | UACC-257 36.3 µM | UACC-62 > 100 µM | NCI-H23 > 100 µM | K562 31.3 µM | PC-3 > 100 µM | HOP-62 > 100 µM | SR 21.3 µM | RPMI-8226 12.1 µM | 786-0 > 100 µM | COLO 205 > 100 µM | DU-145 > 100 µM | HOP-92 > 100 µM | SK-MEL-5 35.8 µM | ACHN > 100 µM | MOLT-4 87.5 µM | SK-MEL-28 > 100 µM | UO-31 > 100 µM | IGROV-1 > 100 µM | HCT-116 > 100 µM | TK-10 > 100 µM | SW-620 > 100 µM | LOX IMVI > 100 µM | CCRF-CEM 52.5 µM | BT-549 > 100 µM | MDA-MB-435 > 100 µM | U-251 > 100 µM | SK-MEL-2 > 100 µM
